Source: US9636418B2 (priority 2013, dated 2017)
Like-named read-outs stand apart in the source and are kept apart here.

Experiments:
Assay in all cases: cell-based
hNav1.5 = hNav1.5 (Homo sapiens, UniProt Q14524); conditions: for IC50: PatchXpress, read-out: PX hNav1.5 Tonic IC50
hNav1.7 = hNav1.7 (Homo sapiens, UniProt Q15858); format: cell-based; conditions: PatchXpress, read-out: PX hNav1.7 Tonic IC50
hNav1.4 = hNav1.4 (Homo sapiens, UniProt P35499); conditions: for IC50: PatchXpress, read-out: PX hNav1.4 Tonic IC50
[1] = * = at high concentrations compound would wash off slowly or not at all

hNav1.4, sequence (P35499 whole entry): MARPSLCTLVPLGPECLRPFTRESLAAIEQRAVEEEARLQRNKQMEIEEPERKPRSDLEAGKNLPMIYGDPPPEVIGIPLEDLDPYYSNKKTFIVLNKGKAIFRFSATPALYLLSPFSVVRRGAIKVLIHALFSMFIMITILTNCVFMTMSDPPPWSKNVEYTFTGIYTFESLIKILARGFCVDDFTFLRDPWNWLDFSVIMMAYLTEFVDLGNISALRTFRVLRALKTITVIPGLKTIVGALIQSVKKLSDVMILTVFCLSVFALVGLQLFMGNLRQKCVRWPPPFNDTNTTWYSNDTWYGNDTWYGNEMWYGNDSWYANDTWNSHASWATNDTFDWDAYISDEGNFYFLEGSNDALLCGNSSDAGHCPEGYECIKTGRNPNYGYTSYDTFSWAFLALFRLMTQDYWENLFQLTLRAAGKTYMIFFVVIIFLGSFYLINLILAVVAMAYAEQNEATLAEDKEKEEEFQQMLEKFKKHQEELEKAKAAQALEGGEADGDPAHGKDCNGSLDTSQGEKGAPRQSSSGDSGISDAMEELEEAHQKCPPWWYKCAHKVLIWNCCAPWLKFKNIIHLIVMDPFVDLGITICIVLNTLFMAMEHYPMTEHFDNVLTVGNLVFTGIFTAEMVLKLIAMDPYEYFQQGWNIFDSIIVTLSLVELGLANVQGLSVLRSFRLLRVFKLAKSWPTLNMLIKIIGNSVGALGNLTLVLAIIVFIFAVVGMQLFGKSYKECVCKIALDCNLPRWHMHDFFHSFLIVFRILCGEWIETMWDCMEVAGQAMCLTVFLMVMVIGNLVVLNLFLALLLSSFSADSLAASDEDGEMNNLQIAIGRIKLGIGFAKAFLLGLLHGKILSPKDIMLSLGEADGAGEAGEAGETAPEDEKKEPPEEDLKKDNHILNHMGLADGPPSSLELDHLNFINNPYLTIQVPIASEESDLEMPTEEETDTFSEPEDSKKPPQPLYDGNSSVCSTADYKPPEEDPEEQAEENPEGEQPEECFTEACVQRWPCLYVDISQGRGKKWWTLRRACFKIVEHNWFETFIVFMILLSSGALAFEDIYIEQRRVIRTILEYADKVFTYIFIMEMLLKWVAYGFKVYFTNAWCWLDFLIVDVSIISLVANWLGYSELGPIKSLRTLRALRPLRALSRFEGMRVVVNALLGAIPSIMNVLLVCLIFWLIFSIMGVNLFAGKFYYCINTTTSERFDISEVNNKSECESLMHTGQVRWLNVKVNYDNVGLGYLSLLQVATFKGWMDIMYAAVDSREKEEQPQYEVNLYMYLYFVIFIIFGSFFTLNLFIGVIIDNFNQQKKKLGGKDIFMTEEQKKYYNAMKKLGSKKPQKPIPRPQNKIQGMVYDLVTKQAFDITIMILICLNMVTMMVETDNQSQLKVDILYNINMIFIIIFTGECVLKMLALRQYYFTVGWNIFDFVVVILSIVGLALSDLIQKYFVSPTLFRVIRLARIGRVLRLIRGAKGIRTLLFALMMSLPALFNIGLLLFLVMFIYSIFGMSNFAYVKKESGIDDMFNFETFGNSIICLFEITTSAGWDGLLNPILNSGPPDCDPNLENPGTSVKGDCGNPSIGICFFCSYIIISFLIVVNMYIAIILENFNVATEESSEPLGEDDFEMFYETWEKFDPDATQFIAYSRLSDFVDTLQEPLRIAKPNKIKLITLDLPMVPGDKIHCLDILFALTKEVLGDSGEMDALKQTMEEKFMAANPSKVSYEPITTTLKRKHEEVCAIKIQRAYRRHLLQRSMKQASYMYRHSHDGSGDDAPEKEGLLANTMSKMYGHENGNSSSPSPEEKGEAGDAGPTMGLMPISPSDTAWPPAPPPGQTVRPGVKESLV
hNav1.7, sequence (Q15858 whole entry): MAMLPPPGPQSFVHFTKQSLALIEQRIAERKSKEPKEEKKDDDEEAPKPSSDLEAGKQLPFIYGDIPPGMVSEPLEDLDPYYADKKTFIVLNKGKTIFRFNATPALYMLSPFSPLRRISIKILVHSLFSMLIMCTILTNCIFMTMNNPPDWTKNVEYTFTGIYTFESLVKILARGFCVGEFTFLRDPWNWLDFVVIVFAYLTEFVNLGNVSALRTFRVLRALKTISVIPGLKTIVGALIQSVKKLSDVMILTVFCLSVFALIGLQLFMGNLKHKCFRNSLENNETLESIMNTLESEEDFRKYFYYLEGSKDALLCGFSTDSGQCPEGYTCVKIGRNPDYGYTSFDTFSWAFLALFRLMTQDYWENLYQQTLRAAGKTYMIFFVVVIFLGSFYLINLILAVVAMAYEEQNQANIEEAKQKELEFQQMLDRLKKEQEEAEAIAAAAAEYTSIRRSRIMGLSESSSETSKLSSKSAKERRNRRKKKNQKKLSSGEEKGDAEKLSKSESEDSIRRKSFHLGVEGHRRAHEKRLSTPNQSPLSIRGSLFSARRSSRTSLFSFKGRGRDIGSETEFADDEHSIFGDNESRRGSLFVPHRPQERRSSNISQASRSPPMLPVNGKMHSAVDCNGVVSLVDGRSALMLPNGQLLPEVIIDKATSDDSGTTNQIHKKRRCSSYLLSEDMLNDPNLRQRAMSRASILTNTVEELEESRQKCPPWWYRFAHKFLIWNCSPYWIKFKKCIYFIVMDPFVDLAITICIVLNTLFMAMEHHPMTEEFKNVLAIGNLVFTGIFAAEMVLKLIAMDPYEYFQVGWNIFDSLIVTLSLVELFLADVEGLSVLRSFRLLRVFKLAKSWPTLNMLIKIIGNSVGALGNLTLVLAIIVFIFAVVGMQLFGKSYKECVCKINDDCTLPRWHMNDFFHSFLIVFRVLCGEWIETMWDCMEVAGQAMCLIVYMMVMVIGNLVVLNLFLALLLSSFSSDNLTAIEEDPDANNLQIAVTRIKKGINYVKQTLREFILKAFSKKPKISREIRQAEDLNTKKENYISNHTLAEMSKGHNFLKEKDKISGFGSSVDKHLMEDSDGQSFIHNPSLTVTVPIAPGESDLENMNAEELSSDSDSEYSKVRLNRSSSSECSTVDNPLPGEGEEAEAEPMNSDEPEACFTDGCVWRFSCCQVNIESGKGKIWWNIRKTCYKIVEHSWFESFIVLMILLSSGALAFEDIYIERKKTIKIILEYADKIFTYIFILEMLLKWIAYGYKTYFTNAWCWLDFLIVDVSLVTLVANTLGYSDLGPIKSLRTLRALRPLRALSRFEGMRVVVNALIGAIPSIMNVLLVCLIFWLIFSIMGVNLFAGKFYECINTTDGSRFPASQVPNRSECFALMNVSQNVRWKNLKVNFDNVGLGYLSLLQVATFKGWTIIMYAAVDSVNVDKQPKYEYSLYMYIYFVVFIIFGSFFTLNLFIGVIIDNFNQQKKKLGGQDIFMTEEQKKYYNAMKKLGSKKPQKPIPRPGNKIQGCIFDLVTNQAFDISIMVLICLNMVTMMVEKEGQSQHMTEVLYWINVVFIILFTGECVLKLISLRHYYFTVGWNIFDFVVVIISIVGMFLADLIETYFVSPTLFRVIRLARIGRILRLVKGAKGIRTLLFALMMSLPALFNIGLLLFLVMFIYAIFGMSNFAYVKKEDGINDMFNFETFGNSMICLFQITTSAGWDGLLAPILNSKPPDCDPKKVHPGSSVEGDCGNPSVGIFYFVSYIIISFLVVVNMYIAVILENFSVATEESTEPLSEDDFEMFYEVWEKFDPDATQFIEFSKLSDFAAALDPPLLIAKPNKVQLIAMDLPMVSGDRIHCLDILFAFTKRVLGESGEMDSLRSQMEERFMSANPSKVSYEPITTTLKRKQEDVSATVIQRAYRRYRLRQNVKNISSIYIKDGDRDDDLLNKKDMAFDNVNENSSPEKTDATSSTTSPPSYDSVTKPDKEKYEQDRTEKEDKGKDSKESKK

C#CC[C@@H]1NC(=O)[C@@H]2CSSC[C@H](NC(=O)[C@@H](N)Cc3ccc(O)cc3)C(=O)N[C@@H](CCC(N)=O)C(=O)N[C@@H](CCCCN)C(=O)N[C@@H](Cc3c[nH]c4ccccc34)C(=O)N[C@@H](CCCC)C(=O)N[C@@H](Cc3c[nH]c4ccccc34)C(=O)N[C@@H]([C@@H](C)O)C(=O)N[C@H]3CSSC[C@H](NC(=O)[C@H](CCCNC(=N)N)NC(=O)[C@H](CC(C)C)NC(=O)CNC1=O)C(=O)N[C@@H](CCCCN)C(=O)N[C@@H](CC(C)C)C(=O)N[C@@H](Cc1c[nH]c4ccccc14)C(=O)N[C@H](C(=O)N[C@@H](CCCNC(=N)N)C(=O)N[C@@H](CCCCN)C(=O)N[C@@H](CCC(=O)O)C(=O)N[C@H](C(N)=O)[C@@H](C)CC)CSSC[C@H](NC(=O)[C@H](C)NC(=O)[C@H](CCCNC(=N)N)NC(=O)[C@H](CCCCN)NC(=O)[C@H](CO)NC(=O)[C@H](CC(=O)O)NC3=O)C(=O)N2 [compound 332]
IC50 (hNav1.5; tonic block): 3.08 µM
IC50 (hNav1.7; tonic block): 0.00363 µM
IC50 (hNav1.4; tonic block): 0.125 µM
Nav1.4/Nav1.7 (hNav1.4; ratio of PX tonic IC50 values): 34

CCCC[C@@H]1NC(=O)[C@H](Cc2c[nH]c3ccccc23)NC(=O)[C@H](CCCCN)NC(=O)[C@H](CCC(N)=O)NC(=O)[C@@H](NC(=O)[C@H](Cc2ccc(O)cc2)NC(=O)[C@H](N)Cc2ccccc2)CSSC[C@@H]2NC(=O)[C@@H]3CSSC[C@@H](C(=O)N[C@@H](CCCNC(=N)N)C(=O)N[C@@H](CCCCN)C(=O)N[C@H](C(=O)N[C@H](C(N)=O)[C@@H](C)CC)[C@@H](C)CC)NC(=O)[C@H](Cc4c[nH]c5ccccc45)NC(=O)[C@H](CC(C)C)NC(=O)[C@H](CCCCN)NC(=O)[C@H](CSSC[C@H](NC(=O)[C@H]([C@@H](C)O)NC(=O)[C@H](Cc4c[nH]c5ccccc45)NC1=O)C(=O)N[C@@H](CC(=O)O)C(=O)N[C@@H](CO)C(=O)N[C@@H](CCCCN)C(=O)N[C@@H](CCCNC(=N)N)C(=O)N[C@@H](C)C(=O)N3)NC(=O)[C@H](CCCNC(=N)N)NC(=O)[C@H](CC(C)C)NC(=O)CNC(=O)[C@H](CCC(=O)O)NC2=O [compound 374]
IC50 (hNav1.5; [1]): 0.62 µM
IC50 (hNav1.7; [1]): 0.000351 µM
IC50 (hNav1.4; [1]): 0.0068 µM
Nav1.4/Nav1.7 (hNav1.4; ratio of PX IC50 values): 19

CCCC[C@@H]1NC(=O)[C@H](Cc2c[nH]c3ccccc23)NC(=O)[C@H](CCCCN)NC(=O)[C@H](CCC(N)=O)NC(=O)[C@@H](NC(=O)[C@@H](N)Cc2ccc(O)cc2)CSSC[C@@H]2NC(=O)[C@@H]3CSSC[C@@H](C(=O)N[C@@H](CCCNC(=N)N)C(=O)N[C@@H](CCCCN)C(=O)N[C@H](C(=O)N[C@@H](Cc4c[nH]c5ccccc45)C(N)=O)[C@@H](C)CC)NC(=O)[C@H](Cc4c[nH]c5ccccc45)NC(=O)[C@H](CC(C)C)NC(=O)[C@H](CCCCN)NC(=O)[C@H](CSSC[C@H](NC(=O)[C@H]([C@@H](C)O)NC(=O)[C@H](Cc4c[nH]c5ccccc45)NC1=O)C(=O)N[C@@H](CC(=O)O)C(=O)N[C@@H](CO)C(=O)N[C@@H](CCCCN)C(=O)N[C@@H](CCCNC(=N)N)C(=O)N[C@@H](CCCCN=[N+]=[N-])C(=O)N3)NC(=O)[C@H](CCC(=O)O)NC(=O)[C@H](CC(C)C)NC(=O)CNC(=O)[C@H](CCC(=O)O)NC2=O [compound 306]
IC50 (hNav1.5; tonic block): 1.97 µM
IC50 (hNav1.7; tonic block): 0.00115 µM
IC50 (hNav1.4; tonic block): 0.635 µM
Nav1.4/Nav1.7 (hNav1.4; ratio of PX tonic IC50 values): 550

CCCC[C@@H]1NC(=O)[C@H](Cc2c[nH]c3ccccc23)NC(=O)[C@H](CCCCN)NC(=O)[C@H](CCC(N)=O)NC(=O)[C@@H](NC(=O)[C@H](Cc2ccc(O)cc2)NC(=O)[C@@H](N)CCCC)CSSC[C@@H]2NC(=O)[C@@H]3CSSC[C@@H](C(=O)N[C@@H](CCCNC(=N)N)C(=O)N[C@@H](CCCCN)C(=O)N[C@H](C(=O)N[C@H](C(N)=O)[C@@H](C)CC)[C@@H](C)CC)NC(=O)[C@H](Cc4c[nH]c5ccccc45)NC(=O)[C@H](CC(C)C)NC(=O)[C@H](CCCCN)NC(=O)[C@H](CSSC[C@H](NC(=O)[C@H]([C@@H](C)O)NC(=O)[C@H](Cc4c[nH]c5ccccc45)NC1=O)C(=O)N[C@@H](CC(=O)O)C(=O)N[C@@H](CO)C(=O)N[C@@H](CCCCN)C(=O)N[C@@H](CCCNC(=N)N)C(=O)N[C@@H](C)C(=O)N3)NC(=O)[C@H](CCCNC(=N)N)NC(=O)[C@H](CC(C)C)NC(=O)CNC(=O)[C@H](CCC(=O)O)NC2=O [compound 370]
IC50 (hNav1.5; [1]): 0.83 µM
IC50 (hNav1.7; [1]): 0.000223 µM
IC50 (hNav1.4; [1]): 0.0046 µM
Nav1.4/Nav1.7 (hNav1.4; ratio of PX IC50 values): 21

CCCC[C@@H]1NC(=O)[C@H](Cc2c[nH]c3ccccc23)NC(=O)[C@H](CCCCN)NC(=O)[C@H](CCC(N)=O)NC(=O)[C@@H](NC(=O)[C@@H](N)Cc2ccc(O)cc2)CSSC[C@@H]2NC(=O)[C@@H]3CSSC[C@@H](C(=O)N[C@@H](CCCNC(=N)N)C(=O)N[C@@H](CCCCN)C(=O)N[C@H](C(=O)N[C@@H](Cc4c[nH]c5ccccc45)C(N)=O)[C@@H](C)CC)NC(=O)[C@H](Cc4c[nH]c5ccccc45)NC(=O)[C@H](CC(C)C)NC(=O)[C@H](CCCCN)NC(=O)[C@H](CSSC[C@H](NC(=O)[C@H]([C@@H](C)O)NC(=O)[C@H](Cc4c[nH]c5ccccc45)NC1=O)C(=O)N[C@@H](CC(=O)O)C(=O)N[C@@H](CO)C(=O)N[C@@H](CCCCN)C(=O)N[C@@H](CCCNC(=N)N)C(=O)N[C@@H](C)C(=O)N3)NC(=O)[C@H](CCC(=O)O)NC(=O)[C@H](CC(C)C)NC(=O)CNC(=O)[C@H](CCCCN=[N+]=[N-])NC2=O [compound 307]
IC50 (hNav1.5; tonic block): 0.75 µM
Nav1.5/Nav1.7 (hNav1.5; ratio of PX tonic IC50 values): 83
IC50 (hNav1.7; tonic block): 0.00908 µM
IC50 (hNav1.4; tonic block): 0.36 µM
Nav1.4/Nav1.7 (hNav1.4; ratio of PX tonic IC50 values): 40

C#CC[C@H](N)C(=O)N[C@@H](Cc1ccc(O)cc1)C(=O)N[C@H]1CSSC[C@@H]2NC(=O)[C@@H]3CSSC[C@@H](C(=O)N[C@@H](CCCNC(=N)N)C(=O)N[C@@H](CCCCN)C(=O)N[C@H](C(=O)N[C@@H](Cc4c[nH]c5ccccc45)C(N)=O)[C@@H](C)CC)NC(=O)[C@H](Cc4c[nH]c5ccccc45)NC(=O)[C@H](CC(C)C)NC(=O)[C@H](CCCCN)NC(=O)[C@H](CSSC[C@H](NC(=O)[C@H]([C@@H](C)O)NC(=O)[C@H](Cc4c[nH]c5ccccc45)NC(=O)[C@H](CC(C)C)NC(=O)[C@H](Cc4c[nH]c5ccccc45)NC(=O)[C@H](CCCCN)NC(=O)[C@H](CCC(N)=O)NC1=O)C(=O)N[C@@H](CC(=O)O)C(=O)N[C@@H](CO)C(=O)N[C@@H](CCCCN)C(=O)N[C@@H](CCCNC(=N)N)C(=O)N[C@@H](C)C(=O)N3)NC(=O)[C@H](CCC(=O)O)NC(=O)[C@H](CC(C)C)NC(=O)CNC(=O)[C@H](CCC(=O)O)NC2=O [compound 299]
IC50 (hNav1.5; tonic block): 1.33 µM
IC50 (hNav1.7; tonic block): 0.000571 µM
IC50 (hNav1.4; tonic block): 1.18 µM

C#CC[C@@H]1NC(=O)[C@@H]2CSSC[C@H](NC(=O)[C@@H](N)Cc3ccc(O)cc3)C(=O)N[C@@H](CCC(N)=O)C(=O)N[C@@H](CCCCN)C(=O)N[C@@H](Cc3c[nH]c4ccccc34)C(=O)N[C@@H](CCCC)C(=O)N[C@@H](Cc3c[nH]c4ccccc34)C(=O)N[C@@H]([C@@H](C)O)C(=O)N[C@H]3CSSC[C@H](NC(=O)[C@H](CCC(=O)O)NC(=O)[C@H](CC(C)C)NC(=O)CNC1=O)C(=O)N[C@@H](CCCCN)C(=O)N[C@@H](CC(C)C)C(=O)N[C@@H](Cc1c[nH]c4ccccc14)C(=O)N[C@H](C(=O)N[C@@H](CCCNC(=N)N)C(=O)N[C@@H](CCCCN)C(=O)N[C@@H](Cc1ccc(O)cc1)C(=O)N[C@H](C(N)=O)[C@@H](C)CC)CSSC[C@H](NC(=O)[C@H](C)NC(=O)[C@H](CCCNC(=N)N)NC(=O)[C@H](CCCCN)NC(=O)[C@H](CO)NC(=O)[C@H](CC(=O)O)NC3=O)C(=O)N2 [compound 317]
IC50 (hNav1.5; tonic block): 3.52 µM
IC50 (hNav1.7; tonic block): 0.0038 µM
IC50 (hNav1.4; tonic block): 0.614 µM

CC[C@H](C)[C@H](NC(=O)[C@@H](NC(=O)[C@H](CCCCN)NC(=O)[C@H](CCCNC(=N)N)NC(=O)[C@@H]1CSSC[C@@H]2NC(=O)[C@H](C)NC(=O)[C@H](CCCNC(=N)N)NC(=O)[C@H](CCCCN)NC(=O)[C@H](CO)NC(=O)[C@H](CC(=O)O)NC(=O)[C@@H]3CSSC[C@H](NC(=O)[C@H](CCCNC(=N)N)NC(=O)[C@H](CC(C)C)NC(=O)CNC(=O)[C@H](CCC(=O)O)NC(=O)[C@H](CSSC[C@H](NC(=O)[C@@H](N)Cc4ccc(O)cc4)C(=O)N[C@@H](CCC(N)=O)C(=O)N[C@@H](CCCCN)C(=O)N[C@@H](Cc4c[nH]c5ccccc45)C(=O)N[C@@H](CCSC)C(=O)N[C@@H](Cc4cccc5ccccc45)C(=O)N[C@@H]([C@@H](C)O)C(=O)N3)NC2=O)C(=O)N[C@@H](CCCCN)C(=O)N[C@@H](CC(C)C)C(=O)N[C@@H](Cc2c[nH]c3ccccc23)C(=O)N1)[C@@H](C)CC)C(N)=O [compound 30]
IC50 (hNav1.5; [1]): 1.42 µM
IC50 (hNav1.7; [1]): 0.0004 µM
IC50 (hNav1.4; [1]): 0.0009 µM
Nav1.4/Nav1.7 (hNav1.4; ratio of PX IC50 values): 2

C#CC[C@@H]1NC(=O)[C@H](CC(=O)O)NC(=O)[C@@H]2CSSC[C@@H]3NC(=O)[C@H](CCC(=O)O)NC(=O)[C@H](CC(C)C)NC(=O)CNC(=O)[C@H](CCC(=O)O)NC(=O)[C@H](CSSC[C@H](NC(=O)[C@@H](N)Cc4ccc(O)cc4)C(=O)N[C@@H](CCC(N)=O)C(=O)N[C@@H](CCCCN)C(=O)N[C@@H](Cc4c[nH]c5ccccc45)C(=O)N[C@@H](CCCC)C(=O)N[C@@H](Cc4c[nH]c5ccccc45)C(=O)N[C@@H]([C@@H](C)O)C(=O)N2)NC(=O)[C@H](CSSC[C@@H](C(=O)N[C@@H](CCCNC(=N)N)C(=O)N[C@@H](CCCCN)C(=O)N[C@H](C(=O)N[C@H](C(N)=O)[C@@H](C)CC)[C@@H](C)CC)NC(=O)[C@H](Cc2c[nH]c4ccccc24)NC(=O)[C@H](CC(C)C)NC(=O)[C@H](CCCCN)NC3=O)NC(=O)[C@H](C)NC(=O)[C@H](CCCNC(=N)N)NC(=O)[C@H](CCCCN)NC1=O [compound 344]
IC50 (hNav1.5; tonic block): 3.55 µM
IC50 (hNav1.7; tonic block): 0.0184 µM
IC50 (hNav1.4; tonic block): 4.22 µM
Nav1.4/Nav1.7 (hNav1.4; ratio of PX tonic IC50 values): 230
